Marks after values point to notes of the source that are not given here.
Experiments:
[1] = test system: human males with secondary hypogonadism; test: Serum hormone (DHT, E2) and SHBG levels by immunoassay in treated men; format: in vivo; settings: for DHT / E2 / SHBG: serum
Procedure: (§1) The effect of the isolated trans-clomiphene isomer on the serum level of biomarkers of bone resorption was assessed in human males with secondary hypogonadism.
Adult male subjects with a morning total testosterone blood level of <300 ng/dl and a serum LH of <15 IU/ml were administered either trans-clomiphene (12 mg/day or 25 mg/day via oral capsule) or a topical testosterone gel (Testim®, 50 mg applied daily) over a three month period. Quantitative determination of baseline serum (circulating) estrogen (E2), dihydrotestosterone (DHT), sex hormone binding globulin (SHBG), P1NP-1 and CTX measurements were made in the subjects by immunoassay. Treatment with either trans-clomiphene (12.5 mg or 25 mg) or Testim® was then initiated. […]

[2] = test system: human males with secondary hypogonadism; test: Serum P1NP-1 (biomarker of bone formation) by immunoassay; format: in vivo
Procedure: as §1
(§2) Adult male subjects with a morning total testosterone blood level of <300 ng/dl and a serum LH of <15 IU/ml were administered either trans-clomiphene ([…] or 25 mg/day via oral capsule) or a topical testosterone gel (Testim®, 50 mg applied daily) over a three month period. Quantitative determination of baseline serum (circulating) estrogen (E2), dihydrotestosterone (DHT), sex hormone binding globulin (SHBG), P1NP-1 and CTX measurements were made in the subjects by immunoassay. Treatment with either trans-clomiphene (12.5 mg or 25 mg) or Testim® was then initiated. Follow-up measurements were taken at 3 weeks post initial dose, 6 months post initial dose and one month after cessation of treatment. The results are presented below at Table 1:
(§3) The effects of trans-clomiphene and Testim® on the level of serum biomarkers of bone formation (P1NP) and bone resorption (CTX) are illustrated at FIGS. 1 and 2. […] The lower levels of P1NP-1 at both trans-clomiphene doses are well within the normal range (15-80 μg/L). A decrease in CTX levels was also observed at both trans-clomiphene dosages; however, the decrease was much stronger at the 25 mg dose. […]

[3] = test system: human males with secondary hypogonadism; test: Serum CTX (biomarker of bone resorption) by immunoassay; format: in vivo
Procedure: as §1, §2, §3

hypogonadal males = test: Total hip bone mineral density (BMD) by DEXA scan; format: in vivo, human; settings: 6 months daily trans-clomiphene (12.5 mg, or up-titrated to 25 mg/day); 15 hypogonadal males; FIG. 3
Procedure: The effect of trans-clomiphene on total hip bone mineral density (BMD) was assessed by dual-energy x-ray absorptiometry (DEXA) scans in 15 hypogonadal males (morning testosterone less than 300 ng/dL) with body mass index (BMI) ranging between 25 and 42 and no evidence of bone disease (including ostepenia) prior to treatment. DEXA scans were performed prior to treatment with trans-clomiphene to determine baseline measurements and after 6 months of daily administration of trans-clomiphene. Four of the 15 subjects received 12.5 mg trans-clomiphene administered daily throughout the 6 month period. Eleven of the 15 subjects began at the 12.5 mg/day dose but were later up-titrated to 25 mg/day. Total hip BMD was also assessed in 25 placebo (control) subjects at the same time points. BMD measurements at the 6 month time point in both treated and control subjects were compared to baseline measurements.

[4] = 12.5 mg Androxal daily oral, 3 months
[5] = 12.5 mg Androxal daily oral, 6 weeks
[6] = 12.5 mg Androxal daily oral, Baseline (before TxT)
[7] = 12.5 mg Androxal daily oral, Post TxT (one month after cessation)
[8] = 25 mg Androxal daily oral, 3 months
[9] = 25 mg Androxal daily oral, 6 weeks
[10] = 25 mg Androxal daily oral, Baseline (before TxT)
[11] = 25 mg Androxal daily oral, Post TxT (one month after cessation)

CCN(CC)CCOc1ccc(/C(=C(/Cl)c2ccccc2)c2ccccc2)cc1 [Androxal, trans-clomiphene]
serum estrogen levels after cessation of treatment compared with baseline ([1]; after cessation of trans-clomiphene treatment): remained elevated | change in serum estradiol 17β (E2) ([1]; daily administration of trans-clomiphene for 6 weeks and 3 months): significant increase | DHT [1, 4]: 20.4^ ng/DL | E2 [1, 4]: 56.7*¶ pg/mL | SHBG [1, 4]: 29.3 nmol/L | DHT [1, 5]: 22.7*^ ng/DL | E2 [1, 5]: 52.1*¶ pg/mL | SHBG [1, 5]: 28.6 nmol/L | DHT [1, 6]: 15 ng/dL | E2 [1, 6]: 20.8 pg/mL | SHBG [1, 6]: 24.7 nmol/L | DHT [1, 7]: 13.7 ng/dL | E2 [1, 7]: 39.1* pg/mL | SHBG [1, 7]: 24.9 nmol/L | DHT [1, 8]: 23.2*^ ng/DL | E2 [1, 8]: 46.3*¶ pg/mL | SHBG [1, 8]: 29.5 nmol/L | DHT [1, 9]: 22.2*^ ng/DL | E2 [1, 9]: 48.3*¶ pg/mL | SHBG [1, 9]: 32 nmol/L | DHT [1, 10]: 15.3 ng/dL | E2 [1, 10]: 24.7 pg/mL | SHBG [1, 10]: 26.4 nmol/L | DHT [1, 11]: 15.8 ng/dL | E2 [1, 11]: 40.2* pg/mL | SHBG [1, 11]: 28.7 nmol/L | change in serum P1NP-1 levels, 25 mg dose compared with 12.5 mg dose ([2]; 25 mg trans-clomiphene daily, dose dependency): more robust decrease | change in serum P1NP-1 levels ([2]; either dose of trans-clomiphene (12.5 mg or 25 mg daily), FIG. 1): decrease | decrease in serum CTX levels, 25 mg dose compared with 12.5 mg dose ([3]; 25 mg trans-clomiphene daily): much stronger | change in serum CTX levels ([3]; both trans-clomiphene dosages (12.5 mg and 25 mg daily), FIG. 2): decrease | increase in total hip BMD versus baseline (hypogonadal males): about 1.23%

— patent US20160128953A1, “TRANS-CLOMIPHENE AND ITS ANALOGUES AS AGENTS THAT INCREASE BONE MINERAL DENSITY” (REPROS THERAPEUTICS INC., priority 2013, published 2016)
